Activity calls are given as the source filed them. The calls are words filed in the database; no cut-off is given here.
Tests used:
[1] = test system: HeLa; assay: Induction of ROS induced cytotoxicity in human HeLa cells at 5 uM administered after 1 hr pretreatment with NAC incubated for 24 hrs measured at 2 hrs interval by propidium iodide staining based real time live cell imaging analysis; type: functional
[2] = test system: HeLa; assay: Induction of GSH depletion in human HeLa cells at 0.1 to 100 uM after 1 hr by GSH/GSSG-glo assay relative to control; type: functional, cell-based
[3] = test system: HeLa; assay: Induction of ROS induced cytotoxicity in human HeLa cells assessed as reduction in cell viability at 5 uM incubated for 24 hrs measured at 2 hrs interval by propidium iodide-staining based real time live cell imaging analysis; type: functional
[4] = test system: HeLa; assay: Induction of ROS induced cytotoxicity in human HeLa cells assessed as morphological changes at 10 uM incubated for 24 hrs measured after 2 hrs by propidium iodide-staining based real time live cell imaging analysis; type: functional
[5] = test system: HeLa; assay: Induction of ROS induced cytotoxicity in human HeLa cells at 2.5 uM incubated for 24 hrs in presence of BSO measured at 2 hrs interval by propidium iodide staining based real time live cell imaging analysis; type: functional
[6] = test system: HeLa; assay: Induction of GSH depletion in human HeLa cells at 5 uM after 1 hr by Ellman's reagent based assay; type: functional
[7] = test system: HeLa; assay: Induction of ROS levels in human HeLa cells at 10 uM after 1 hr by CM-H2DCFDA/Hoechst-based fluorescence microscopic analysis relative to 10 uM CDNB; type: functional
[8] = test system: U2OS; assay: Induction of ROS levels in human U2OS cells at 10 uM after 30 mins by CM-H2DCFDA/Hoechst-based fluorescence microscopic analysis relative to 10 uM CDNB; type: functional
[9] = GSH reactivity in PBS buffer assessed as compound-GSH conjugate formation at 100 uM after 1 hr in presence of GSH by UHPLC/ESI-MS method; type: physicochemical
[10] = GSH reactivity in PBS buffer assessed as retention time for compound-GSH conjugate formation at 100 uM after 1 hr in presence of GSH by UHPLC/ESI-MS method; type: physicochemical
[11] = test system: U2OS; assay: Induction of GSH depletion in human U2OS cells assessed as GSH content at 10 uM by GSH/GSSG-Glo assay relative to DMSO; type: functional
[12] = test system: HeLa; assay: Induction of GSH depletion in human HeLa cells at 10 uM after 1 hr by Ellman's reagent based assay; type: functional
[13] = test system: HeLa; assay: Induction of ROS induced cytotoxicity in human HeLa cells assessed as reduction in cell viability at 2.5 to 20 uM incubated for 24 hrs measured at 2 hrs interval by propidium iodide-staining based live cell imaging analysis; type: functional
[14] = test system: HeLa; assay: Induction of GSH depletion in human HeLa cells at 20 uM after 1 hr by Ellman's reagent based assay; type: functional
[15] = test system: HeLa; assay: Induction of ROS induced cytotoxicity in human HeLa cells assessed as reduction in cell viability at 10 uM incubated for 24 hrs measured at 2 hrs interval by propidium iodide-staining based real time live cell imaging analysis; type: functional
[16] = test system: HeLa; assay: Induction of ROS induced cytotoxicity in human HeLa cells at 5 uM incubated for 24 hrs in presence of BSO measured at 2 hrs interval by propidium iodide staining based real time live cell imaging analysis; type: functional
[17] = test system: HeLa; assay: Induction of ROS induced cytotoxicity in human HeLa cells at 10 uM administered after 1 hr pretreatment with NAC incubated for 24 hrs measured at 2 hrs interval by propidium iodide staining based real time live cell imaging analysis; type: functional
[18] = test system: HeLa; assay: Induction of GSH depletion in human HeLa cells after 1 hr by GSH/GSSG-glo assay relative to control; type: functional, cell-based

In the case of `CN(C(=O)Cn1ncc(Br)c(Br)c1=O)C1CCCc2ccccc21` (configuration not stated), the Activity [1] is reported as “inactive”, the Activity [2] is reported as “Active” and the Activity [3] is reported as “Active”. For the same compound, the Activity [4] was “Active”, the Activity [5] was “Active” and the Activity [6] was 23.1%. The Activity [7] was 63.96%, the Activity [8] was 60% and the Activity [9] was “Active”. The Retention_time [10] was 3.41 min, the Activity [11] was 9.56% and the Activity [12] was 38%.
Compound `O=c1c(Cl)c(Cl)cnn1Cc1nc2ccccc2n1C(F)F` has an Activity [8] of 111% and an Activity [11] of 31.86%.
In the case of `COc1cccc(CNC(=O)COC(=O)c2nc(Cl)c(Cl)c(Cl)c2Cl)c1`, the Activity [13] is reported as “inactive”, the Activity [2] is reported as “inactive” and the Activity [7] is reported as 12.14%. For the same compound, the Activity [9] was “Active” and the Activity [12] was “inactive”.
With `CC(C)N(C(=O)Cn1ncc(Br)c(Br)c1=O)c1ccccc1` the Activity [2] was “Active”, the Activity [8] was 67% and the Activity [11] was 20.43%.
With `CC(=O)c1ccc(N2CCN(C(=O)Cn3ncc(Cl)c(Cl)c3=O)CC2)c(F)c1` the Activity [2] was “Active”, the Activity [8] was 113% and the Activity [11] was 30.95%.
Work on `Cc1cccc(CS(=O)(=O)c2ncc(Cl)c(C(=O)Nc3nc4ccc(C)cc4s3)n2)c1` yielded an Activity [8] of 106% and an Activity [11] of 37.21%.
In the case of `COc1ccc(N(C)C(=O)c2nc(Cl)c(Cl)c(Cl)c2Cl)cc1OC`, the Activity [2] is reported as “Active”.
In the case of `CCCS(=O)(=O)c1ncc(Cl)c(C(=O)Nc2nc3ccc(F)cc3s2)n1`, the Activity [8] is reported as 97% and the Activity [11] is reported as 11.22%.
In the case of `O=c1cc(Cn2ncc(Cl)c(Cl)c2=O)[nH]c(=O)[nH]1`, the Activity [13] is reported as “inactive”, the Activity [2] is reported as “Active” and the Activity [14] is reported as 21.3%. For the same compound, the Activity [7] was 9.73%, the Activity [9] was “Active” and the Activity [12] was “inactive”.
For `Cc1cccc(NC(=O)c2nc(Cl)c(Cl)c(Cl)c2Cl)c1C`, the Activity [2] was “Active”.
With `Cc1nnc(NC(=O)c2nc(S(=O)(=O)Cc3ccccc3)ncc2Cl)s1` the Activity [8] was 92% and the Activity [11] was 34.32%.
With `CCN(CC)C(=O)c1cccc(NS(=O)(=O)c2ccc(-n3ncc(Cl)c(Cl)c3=O)cc2)c1` the Activity [2] was “Active”, the Activity [8] was 98% and the Activity [11] was 30.8%.
In the case of `CC(=O)c1c(C)[nH]c(C(=O)Cn2ncc(Cl)c(Cl)c2=O)c1C`, the Activity [2] is reported as “Active”, the Activity [8] is reported as 100% and the Activity [11] is reported as 32.83%.
Compound `CCCS(=O)(=O)c1ncc(Cl)c(C(=O)Nc2nc(C)c(C(=O)OCC(C)C)s2)n1` has an Activity [8] of 130% and an Activity [11] of 23.2%.
With `CCCNC(=O)c1c(Cl)nc(Cl)c(Cl)c1Cl` the Activity [2] was “Active”.
`CCS(=O)(=O)c1ncc(Cl)c(C(=O)Nc2c(C(=O)Nc3ccccc3)oc3ccccc23)n1` showed an Activity [8] of 83% and an Activity [11] of 39.62%.
`O=C(CN1CCCC1c1ccc2c(c1)OCCO2)Cn1ncc(Cl)c(Cl)c1=O` (configuration not stated) gave an Activity [8] of 163% and an Activity [11] of 19.2%.
`Clc1ncnc2c1oc1ccccc12` gave an Activity [8] of 116% and an Activity [11] of 25.49%.
In the case of `COCCOc1ccc(CNC(=O)c2nc(Cl)c(Cl)c(Cl)c2Cl)cc1`, the Activity [2] is reported as “Active”.
In the case of `O=C(c1c(Cl)nc(Cl)c(Cl)c1Cl)N1CCOCC1`, the Activity [2] is reported as “Active”.
For `O=C(Cn1ncc(Cl)c(Cl)c1=O)N1CCCC1c1ccc2c(c1)OCCO2` (configuration not stated), the Activity [15] was “Active”, the Activity [2] was “Active” and the Activity [4] was “Active”. For the same compound, the Activity [7] was 78.23%, the Activity [9] was “Active” and the Activity [12] was “Active”.
For `O=c1c(Cl)c(Cl)cnn1-c1ccc(S(=O)(=O)NCc2cc(-c3ccccc3)no2)cc1`, the Activity [8] was 129% and the Activity [11] was 24.31%.
In the case of `O=C(Nc1ccccc1Br)c1c(Cl)nc(Cl)c(Cl)c1Cl`, the Activity [2] is reported as “Active”, the Activity [8] is reported as 91% and the Activity [11] is reported as 36.07%.
For `O=C(Cn1ncc(Br)c(Br)c1=O)C12CC3CC(CC(C3)C1)C2`, the Activity [2] was “Active”, the Activity [8] was 88% and the Activity [11] was 13.2%.
`CC(NC(=O)Cn1ncc(Cl)c(Cl)c1=O)c1ccc(F)cc1` (configuration not stated) gave an Activity [8] of 79% and an Activity [11] of 22.59%.
For `O=c1c(Br)c(Br)cnn1CC(O)COc1cccc(Br)c1` (configuration not stated), the Activity [2] was “Active”.
In the case of `O=C(NCc1ccc(Cl)cc1)c1c(Cl)nc(Cl)c(Cl)c1Cl`, the Activity [2] is reported as “Active”, the Activity [8] is reported as 87% and the Activity [11] is reported as 30.39%.
In the case of `O=[N+]([O-])c1ccc(Cl)c([N+](=O)[O-])c1`, the Activity [12] is reported as “Active”.
For `CCS(=O)(=O)c1ncc(Cl)c(C(=O)Nc2ccc(-c3nc4ccc(C)cc4s3)cc2)n1`, the Activity [8] was 127% and the Activity [11] was 37.49%.
Compound `COc1ccc2nc(NC(=O)c3nc(S(C)(=O)=O)ncc3Cl)sc2c1` has an Activity [8] of 107% and an Activity [11] of 30.72%.
With `O=c1c(Br)c(Br)cnn1Cc1ccccc1` the Activity [2] was “Active”, the Activity [8] was 77% and the Activity [11] was 37.49%.
Work on `O=C(Cn1ncc(Cl)c(Cl)c1=O)N1CCc2cc(S(=O)(=O)N3CCCCC3)ccc21` yielded an Activity [8] of 104% and an Activity [11] of 35.26%.
Work on `O=C1CC(c2cccc3ccccc23)CC1=O` yielded an Activity [8] of 110% and an Activity [11] of 24.43%.
`O=C(Cn1ncc(Cl)c(Cl)c1=O)N(C1=CCCCC1)C1CC1` showed an Activity [8] of 70% and an Activity [11] of 38.9%.
Work on `N#Cc1c(Cl)nc(N2CCOCC2)c(Cl)c1Cl` yielded an Activity [8] of 82% and an Activity [11] of 22.32%.
Work on `COc1ccc2c(c1)CCCN2S(=O)(=O)c1ccc(-n2ncc(Cl)c(Cl)c2=O)cc1` yielded an Activity [8] of 52% and an Activity [11] of 29.49%.
Compound `CCOC(=O)C1CCN(C(=O)Cn2ncc(Cl)c(Cl)c2=O)CC1` has an Activity [8] of 95% and an Activity [11] of 35.47%.
For `COc1ccc(OC)c(NC(=O)c2c(Cl)nc(Cl)c(Cl)c2Cl)c1`, the Activity [2] was “inactive”, the Activity [3] was “Active” and the Activity [4] was “Active”. For the same compound, the Activity [16] was “Active”, the Activity [7] was 73.78% and the Activity [8] was 69%. For the same compound, the Activity [9] was “Active”, the Retention_time [10] was 3.48 min and the Activity [11] was 39.27%. The Activity [17] was “inactive”, the Activity [12] was “inactive” and the Activity [18] was “Dose-dependent effect”.
In the case of `O=C(Cn1ncc(Cl)c(Cl)c1=O)N(Cc1ccco1)CC(F)(F)F`, the Activity [8] is reported as 75% and the Activity [11] is reported as 35.84%.
With `NC(=O)C1CCN(C(=O)c2nc(Cl)c(Cl)c(Cl)c2Cl)CC1` the Activity [15] was “Active”, the Activity [2] was “Active” and the Activity [7] was 98.33%. For the same compound, the Activity [8] was 55%, the Activity [9] was “Active” and the Activity [11] was 24.15%. For the same compound, the Activity [12] was “Active”.
